Columns and labels:
[1] = target: T1, EPHA1 (Homo sapiens, UniProt P21709); assay: Z'-LYTE kinase panel; format: biochemical
T1 construct: purchased ThermoFisher (SelectScreen, Z'-LYTE)
T1 sequence (P21709 26-976): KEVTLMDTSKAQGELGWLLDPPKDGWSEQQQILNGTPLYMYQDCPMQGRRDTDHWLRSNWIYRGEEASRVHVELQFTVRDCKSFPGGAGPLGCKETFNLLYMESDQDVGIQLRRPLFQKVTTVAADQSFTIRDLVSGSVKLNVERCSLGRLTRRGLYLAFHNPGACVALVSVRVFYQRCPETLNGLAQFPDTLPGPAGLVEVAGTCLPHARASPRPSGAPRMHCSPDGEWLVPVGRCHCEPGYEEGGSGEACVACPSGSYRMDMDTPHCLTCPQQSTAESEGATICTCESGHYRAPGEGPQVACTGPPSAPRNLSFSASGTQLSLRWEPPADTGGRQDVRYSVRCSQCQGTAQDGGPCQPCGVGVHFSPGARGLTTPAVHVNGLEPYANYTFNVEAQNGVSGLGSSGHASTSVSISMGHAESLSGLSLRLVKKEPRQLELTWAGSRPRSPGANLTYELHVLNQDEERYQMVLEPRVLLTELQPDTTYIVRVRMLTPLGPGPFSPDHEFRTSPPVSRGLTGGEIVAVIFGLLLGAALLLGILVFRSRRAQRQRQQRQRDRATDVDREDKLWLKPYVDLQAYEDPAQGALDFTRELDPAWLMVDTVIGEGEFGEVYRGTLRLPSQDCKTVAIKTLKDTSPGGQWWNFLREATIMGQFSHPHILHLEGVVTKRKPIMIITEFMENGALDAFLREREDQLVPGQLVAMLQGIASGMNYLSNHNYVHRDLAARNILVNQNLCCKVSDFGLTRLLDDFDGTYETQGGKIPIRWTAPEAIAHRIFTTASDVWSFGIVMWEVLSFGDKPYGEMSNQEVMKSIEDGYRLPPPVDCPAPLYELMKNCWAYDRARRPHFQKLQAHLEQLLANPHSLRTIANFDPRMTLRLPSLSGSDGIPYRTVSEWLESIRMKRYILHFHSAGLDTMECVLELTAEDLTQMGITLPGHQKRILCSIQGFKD
How it was run: (§1)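 Each compound was added at 10 µM, kinase activity was then measured via the standard Z′-LYTE assay, and percentage inhibition was calculated; 225 kinases were covered.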

[2] = target: T2, TAOK2 (TAO1) (Homo sapiens, UniProt Q9UL54); assay: Z'-LYTE kinase panel; format: biochemical
T2 construct: purchased ThermoFisher (SelectScreen, Z'-LYTE)
T2 sequence (Q9UL54 1-1235): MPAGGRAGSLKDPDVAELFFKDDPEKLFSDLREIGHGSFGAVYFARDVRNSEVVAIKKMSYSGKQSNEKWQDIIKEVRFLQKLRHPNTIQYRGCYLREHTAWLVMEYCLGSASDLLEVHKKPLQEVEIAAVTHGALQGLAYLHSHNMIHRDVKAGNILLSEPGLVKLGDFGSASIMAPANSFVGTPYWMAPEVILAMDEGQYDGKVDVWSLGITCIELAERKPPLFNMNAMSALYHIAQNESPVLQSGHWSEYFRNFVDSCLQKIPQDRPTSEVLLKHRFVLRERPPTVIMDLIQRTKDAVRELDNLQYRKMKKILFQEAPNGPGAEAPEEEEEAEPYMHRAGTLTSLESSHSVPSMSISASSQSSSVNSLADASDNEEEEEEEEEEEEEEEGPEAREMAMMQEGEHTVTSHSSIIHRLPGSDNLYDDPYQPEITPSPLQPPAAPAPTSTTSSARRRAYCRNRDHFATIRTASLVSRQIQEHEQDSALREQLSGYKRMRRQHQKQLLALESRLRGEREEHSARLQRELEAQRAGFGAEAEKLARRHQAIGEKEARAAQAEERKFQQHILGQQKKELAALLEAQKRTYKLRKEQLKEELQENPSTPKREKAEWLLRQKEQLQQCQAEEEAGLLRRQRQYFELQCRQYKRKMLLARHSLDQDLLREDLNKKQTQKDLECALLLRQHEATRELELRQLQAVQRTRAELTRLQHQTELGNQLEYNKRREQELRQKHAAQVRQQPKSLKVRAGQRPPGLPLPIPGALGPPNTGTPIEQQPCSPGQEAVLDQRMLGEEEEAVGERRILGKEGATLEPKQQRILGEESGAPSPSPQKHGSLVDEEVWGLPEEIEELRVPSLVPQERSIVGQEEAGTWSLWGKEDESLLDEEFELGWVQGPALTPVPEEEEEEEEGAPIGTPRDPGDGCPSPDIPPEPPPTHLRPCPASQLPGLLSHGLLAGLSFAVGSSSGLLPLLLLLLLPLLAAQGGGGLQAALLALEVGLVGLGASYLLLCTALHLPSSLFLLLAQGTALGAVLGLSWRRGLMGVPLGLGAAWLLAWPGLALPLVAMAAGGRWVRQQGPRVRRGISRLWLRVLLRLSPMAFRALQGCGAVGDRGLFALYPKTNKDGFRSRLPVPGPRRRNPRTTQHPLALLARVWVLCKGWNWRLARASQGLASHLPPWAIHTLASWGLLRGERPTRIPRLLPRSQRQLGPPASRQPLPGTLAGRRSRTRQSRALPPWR
How it was run: as §1

Compound	inhibition at 10 µM [1] [%]	inhibition at 10 µM [2] [%]	EPHA1 % Inhibition ([1]; 10 µM compound, ATP Km app) [%]	TAOK2 (TAO1) % Inhibition ([2]; 10 µM compound, ATP Km app) [%]
Cc1cc(Nc2nc(N)nn2C(=O)NC(C)C)ccc1Cl [Compound 5]	11	21	–	–
Cc1ncc(-c2nc(Nc3ccc(C(=O)NCCN4CCCCC4)cc3)ncc2F)n1C(C)C [Compound 3]	98	97	–	–
XMD8-92 [Compound 2, reference compound]	–	–	9.48	39
